Results reported in patent US20250197384A1, “AZOLE COMPOUND AND ANTIFUNGAL AGENT” (NIHON NOHYAKU CO., LTD., priority 2022, published 2025).
Converted amounts (≈) assume the structure as drawn.

Tests used:
Format in all cases: cell-based
[1] = tested on: Aspergillus fumigatus TIMM0063; experiment: In vitro anti-Aspergillus activity test; settings: for minimum inhibitory concentration against various fungi (MIC) A. fumigatus / MIC: Table 22, 35° C. for 48 hr, alamar Blue, minimum concentration showing 80% or more inhibition; for MIC: Aspergillus fumigatus, read-out: minimum inhibitory concentration against various fungi (MIC) A. fumigatus; for A. fumigatus (MIC): Table 23, 35° C. for 48 hr, 80% or more inhibition, unit inferred
Experimental: Aspergillus fumigatus TIMM0063 was used as the strain. The test fungi were cultured on a Potato dextrose agar slant medium at 35° C. for 4 days, and then sterilized saline containing 0.1% (v/v) Tween 80 was added to release the conidia. This conidial suspension was filtered through sterile gauze, and the number of conidia was counted using a hemocytometer. The same solution was adjusted to a conidial concentration of 1×10^6 conidia/mL, and this was used as an inoculum. Each compound was dissolved in dimethyl sulfoxide to a predetermined concentration, and diluted 50-fold with 0.165 M MOPS buffered RPMI 1640 liquid medium, and each diluted solution was dispensed into a 96-well microplate by each 100 μL. The inoculum was diluted 50-fold with 0.165 M MOPS buffered RPMI 1640 liquid medium containing 20% alamar Blue™, and the diluted solution was inoculated into the 96-well microplate containing the compound by each 100 μL (final inoculum amount 1.0×10^4 conidia/mL). After static culture at 35° C. for 48 hr, the degree of color development of the alamar Blue™ was measured using a microplate reader (O.D. 570-595 nm), and the minimum concentration showing 80% or more inhibition was defined as the minimum inhibitory concentration (MIC).

[2] = tested on: Trichophyton mentagrophytes TIMM2789; experiment: In vitro anti-tinea fungus activity test (T. mentagrophytes); settings: Table 22, 27° C. for 3 days, alamar Blue, minimum concentration showing 80% or more inhibition; for MIC: Trichophyton mentagrophytes, 72 h, read-out: minimum inhibitory concentration against various fungi (MIC) T. mentagrophytes
Experimental: (§1) Trichophyton rubrum NBRC6203 and Trichophyton mentagrophytes TIMM2789 were used as the strains. The test fungi were cultured on a Sabouraud dextrose agar slant medium at 27° C. for 10-13 days, and then suspended in sterilized saline. The number of cells in this suspension was counted using a hemocytometer, and the same suspension was adjusted to a cell concentration of 2×10^6 conidia/mL, and this was used as an inoculum. Each compound was dissolved in dimethyl sulfoxide to a predetermined concentration, and diluted 50-fold with 0.165 M MOPS buffered RPMI 1640 liquid medium, and each diluted solution was dispensed into a 96-well microplate by each 100 μL. The inoculum was diluted 50-fold with 0.165 M MOPS buffered RPMI 1640 liquid medium containing 20% alamar Blue™, and the diluted solution was inoculated into the 96-well microplate containing the compound by each 100 μL (final inoculum amount 2×10^4 conidia/mL). After static culture at 27° C. for 3 days (Trichophyton mentagrophytes) or for 5 days (Trichophyton rubrum), the degree of color development of the alamar Blue™ was measured using a microplate reader (O.D. 570-595 nm), and the minimum concentration showing 80% or more inhibition was defined as the minimum inhibitory concentration (MIC).

[3] = tested on: Candida albicans NBRC1270; experiment: In vitro anti-Candida activity test; settings: for minimum inhibitory concentration against various fungi (MIC) C. albicans / MIC: Table 22, 35° C. for 24 hr, alamar Blue, minimum concentration showing 80% or more inhibition; for MIC: Candida albicans, read-out: minimum inhibitory concentration against various fungi (MIC) C. albicans; for C. albicans (MIC): Table 23, 35° C. for 24 hr, 80% or more inhibition, unit inferred
Experimental: Candida albicans NBRC1270 was used as the strain. The test fungi were cultured on a Sabouraud dextrose agar slant medium at 35° C. for 24 hr, and then suspended in sterilized saline. The number of cells in this suspension was counted using a hemocytometer, and the same suspension was adjusted to a cell concentration of 1.5×10^5 cells/mL, and this was used as an inoculum. Each compound was dissolved in dimethyl sulfoxide to a predetermined concentration, and diluted 50-fold with 0.165 M MOPS buffered RPMI 1640 liquid medium, and each diluted solution was dispensed into a 96-well microplate by each 100 μL. The inoculum was diluted 50-fold with 0.165 M MOPS buffered RPMI 1640 liquid medium containing 20% alamar Blue™, and the diluted solution was inoculated into the 96-well microplate containing the compound by each 100 μL (final inoculum amount 1.5×10^3 cells/mL). After static culture at 35° C. for 24 hr, the degree of color development of the alamar Blue™ was measured using a microplate reader (O.D. 570-595 nm), and the minimum concentration showing 80% or more inhibition was defined as the minimum inhibitory concentration (MIC).

[4] = tested on: Trichophyton rubrum NBRC6203; experiment: In vitro anti-tinea fungus activity test (T. rubrum); settings: Table 22, 27° C. for 5 days, alamar Blue, minimum concentration showing 80% or more inhibition; for MIC: Trichophyton rubrum, 120 h, read-out: minimum inhibitory concentration against various fungi (MIC) T. rubrum
Experimental: as §1

Row | Structure (SMILES) | minimum inhibitory concentration against various fungi (MIC) A. fumigatus [1] [ng/mL] | minimum inhibitory concentration against various fungi (MIC) T. mentagrophytes [2] [ng/mL] | minimum inhibitory concentration against various fungi (MIC) C. albicans [3] [ng/mL] | minimum inhibitory concentration against various fungi (MIC) T. rubrum [4] [ng/mL] | MIC [1] [ng/mL] | MIC [2] [ng/mL] | MIC [3] [ng/mL] | MIC [4] [ng/mL] | A. fumigatus (MIC) [1] [ng/mL] | C. albicans (MIC) [3] [ng/mL]
1 | COC(=O)Nc1cnc(C2CS/C(=C(/C#N)n3ccnc3)S2)c(Cl)c1 (centres unmarked) [Compound No. 15, methyl (E)-(5-chloro-6-{2-[cyano(1H-imidazol-1-yl)methylene]-1,3-dithiolan-4-yl}pyridin-3-yl)carbamate] | – | – | – | – | 5 (≈ 0.0127 µM) | 10 (≈ 0.0254 µM) | 2.5 (≈ 0.00635 µM) | 10 (≈ 0.0254 µM) | – | –
2 | N#C/C(=C1/SCC(c2ncc(Br)cc2Cl)S1)n1ccnc1 (racemic) [Compound No. 1] | 1.3 (≈ 0.00325 µM) | ≤1 | 100 (≈ 0.25 µM) | ≤1 | – | – | – | – | – | –
3 | N#C/C(=C1/SCC(c2ncc(/C(N)=N/OCc3ccccc3)cc2Cl)S1)n1ccnc1 (centres unmarked) [Compound No. 27, (Z)—N′-(benzyloxy)-5-chloro-6-{(E)-2-[cyano(1H-imidazol-1-yl)methylene]-1,3-dithiolan-4-yl}nicotinimidamide] | – | – | – | – | 5 (≈ 0.0107 µM) | ≤ 1 | 1.3 (≈ 0.00277 µM) | ≤ 1 | – | –
4 | CCOC(=O)Nc1cnc(C2CS/C(=C(/C#N)n3ccnc3)S2)c(Cl)c1 (centres unmarked) [compound 16] | 5 (≈ 0.0123 µM) | 10 (≈ 0.0245 µM) | 2.5 (≈ 0.00613 µM) | ≤1 | – | – | – | – | – | –
5 | C=Cc1cnc(C2CS/C(=C(/C#N)n3ccnc3)S2)c(Cl)c1 (centres unmarked) [compound 3] | 2.5 (≈ 0.00721 µM) | ≤1 | 100 (≈ 0.288 µM) | ≤1 | – | – | – | – | – | –
6 | N#C/C(=C1/SCC(c2ncc(N)cc2Cl)S1)n1ccnc1 (racemic) [Compound No. 2] | 10 (≈ 0.0298 µM) | 10 (≈ 0.0298 µM) | 1000 (≈ 2.98 µM) | 10 (≈ 0.0298 µM) | – | – | – | – | – | –
7 | N#CCOc1cnc(C2CS/C(=C(/C#N)n3ccnc3)S2)c(Cl)c1 (centres unmarked) [compound 4] | 5 (≈ 0.0133 µM) | 10 (≈ 0.0266 µM) | 1000 (≈ 2.66 µM) | 10 (≈ 0.0266 µM) | – | – | – | – | – | –
8 | CCCC1CC(c2cnc(C3CS/C(=C(/C#N)n4ccnc4)S3)c(Cl)c2)=NO1 (centres unmarked) [Compound No. 6, (E)-2-{4-[3-chloro-5-(5-propyl-4,5-dihydroisoxazol-3-yl)pyridin-2-yl]-1,3-dithiolan-2-ylidene}-2-(1H-imidazol-1-yl)acetonitrile] | – | – | – | – | 5 (≈ 0.0116 µM) | 10 (≈ 0.0231 µM) | 10 (≈ 0.0231 µM) | 10 (≈ 0.0231 µM) | – | –
9 | N#C/C(=C1/SCC(c2ncc(NC(=O)OCc3ccc(F)cn3)cc2Cl)S1)n1cncn1 (centres unmarked) [compound 73] | – | – | – | – | – | – | – | – | 10 | 10
10 | N#C/C(=C1/SCC(c2ncc(NC(=O)OCC3CC3)cc2Cl)S1)n1cncn1 (racemic) [compound 87] | – | – | – | – | – | – | – | – | 5 | 1.25

More lines, now with the values ahead:

Row | minimum inhibitory concentration against various fungi (MIC) A. fumigatus [1] [ng/mL] | minimum inhibitory concentration against various fungi (MIC) T. mentagrophytes [2] [ng/mL] | minimum inhibitory concentration against various fungi (MIC) C. albicans [3] [ng/mL] | minimum inhibitory concentration against various fungi (MIC) T. rubrum [4] [ng/mL] | MIC [1] [ng/mL] | MIC [2] [ng/mL] | MIC [3] [ng/mL] | MIC [4] [ng/mL] | A. fumigatus (MIC) [1] [ng/mL] | C. albicans (MIC) [3] [ng/mL] | Structure (SMILES)
11 | 5 (≈ 0.0127 µM) | 10 (≈ 0.0255 µM) | 5 (≈ 0.0127 µM) | ≤1 | – | – | – | – | – | – | CCO/N=C/c1cnc(C2CS/C(=C(/C#N)n3cncn3)S2)c(Cl)c1 (centres unmarked) [compound 21]
12 | 5 (≈ 0.0127 µM) | 10 (≈ 0.0253 µM) | 10 (≈ 0.0253 µM) | ≤1 | – | – | – | – | – | – | COC(=O)Nc1cnc(C2CS/C(=C(/C#N)n3cncn3)S2)c(Cl)c1 (centres unmarked) [compound 7]
13 | – | – | – | – | 25 (≈ 0.0637 µM) | 10 (≈ 0.0255 µM) | 50 (≈ 0.127 µM) | 10 (≈ 0.0255 µM) | – | – | CCOC(=O)Nc1cnc(C2CS/C(=C(/C#N)n3cncn3)S2)c(F)c1 (centres unmarked) [Compound No. 10, ethyl (E)-(6-{2-[cyano(1H-1,2,4-triazol-1-yl)methylene]-1,3-dithiolan-4-yl}-5-fluoropyridin-3-yl)carbamate]
14 | 100 (≈ 0.229 µM) | 100 (≈ 0.229 µM) | 10 (≈ 0.0229 µM) | 10 (≈ 0.0229 µM) | – | – | – | – | – | – | CC(C)(C)OC(=O)Nc1cnc(C2CS/C(=C(/C#N)n3cncn3)S2)c(Cl)c1 (centres unmarked) [compound 12]
15 | 5 (≈ 0.0132 µM) | 10 (≈ 0.0264 µM) | 10 (≈ 0.0264 µM) | ≤1 | – | – | – | – | – | – | CO/N=C/c1cnc(C2CS/C(=C(/C#N)n3cncn3)S2)c(Cl)c1 (centres unmarked) [compound 19]
16 | 2.5 (≈ 0.00662 µM) | ≤1 | 2.5 (≈ 0.00662 µM) | ≤1 | – | – | – | – | – | – | CO/N=C/c1cnc(C2CS/C(=C(/C#N)n3ccnc3)S2)c(Cl)c1 (centres unmarked) [compound 24]
17 | 5 (≈ 0.011 µM) | 10 (≈ 0.022 µM) | 0.6 (≈ 0.00132 µM) | ≤1 | – | – | – | – | – | – | N#C/C(=C1/SCC(c2ncc(/C=N/OCc3ccccc3)cc2Cl)S1)n1cncn1 (centres unmarked) [compound 23]
18 | 5 (≈ 0.0122 µM) | 10 (≈ 0.0245 µM) | 10 (≈ 0.0245 µM) | ≤1 | – | – | – | – | – | – | CCOC(=O)Nc1cnc(C2CS/C(=C(/C#N)n3cncn3)S2)c(Cl)c1 (centres unmarked) [compound 11]
19 | – | – | – | – | 2.5 (≈ 0.00638 µM) | ≤ 1 | 0.6 (≈ 0.00153 µM) | ≤ 1 | – | – | CCO/N=C/c1cnc(C2CS/C(=C(/C#N)n3ccnc3)S2)c(Cl)c1 (centres unmarked) [Compound No. 25, (E)-2-(4-{3-chloro-5-[(E)-(ethoxyimino)methyl]pyridin-2-yl}-1,3-dithiolan-2-ylidene)-2-(1H-imidazol-1-yl)acetonitrile]
20 | – | – | – | – | 5 (≈ 0.0127 µM) | – | 25 (≈ 0.0637 µM) | – | – | – | CCOC(=O)Nc1cnc([C@@H]2CS/C(=C(/C#N)n3cncn3)S2)c(F)c1 [Compound No. 8, ethyl (R,E)-(6-{2-[cyano(1H-1,2,4-triazol-1-yl)methylene]-1,3-dithiolan-4-yl}-5-fluoropyridin-3-yl)carbamate]
